From patent US5691340A, “Benzopyran derivatives” (Adir et Compagnie, priority 1994, dated 1997)
pIC50: −log10 of the molar value.

What was measured:
σ receptors = settings: cited from earlier work
man = settings: in vivo; cited from earlier work
[1] = tested on: hypermotility induced by amphetamine; test: Antagonism of hypermotility induced by amphetamine; type: in vivo, NMRI-CERJ mice; settings: 64 mg/kg, IP, mice; d-amphetamine 4 mg.kg^-1 IP
Experimental: This test was developed by Costall B., et al. (Brain Research, 1977, 123, 89-111).
Groups of 10 NMRI-CERJ mice are injected intraperitoneally (IP) with 4 mg.kg^-1 of d-amphetamine immediately after the compound to be tested (also injected by the IP route) and the mice are placed in an activity cage for 30 minutes.
The number of interruptions of photoelectric cells is recorded, as well as the stereotypical behavior.
The activity of the tested compounds is expressed as percentage of antagonism of the hyperactivity induced by amphetamine.

σ receptor = test: In vitro binding to σ receptors ([3H]-DTG or [3H]-3-PPP); design: species or system calf; settings: [3H]-DTG
Experimental: (§1) The products are tested on each receptor at 5 different concentrations (10^-5 M, 10^-6 M, 10^-7 M, 10^-8 M and 10^-9 M) in triplicate. When the binding coefficient IC50 (concentration of product which displaces 50% of the radioligand) is less than a concentration of 10^-6 M, the Ki is measured by using 12 concentrations of the product.
(§2) The receptors for which the affinity of the compounds of the invention was determined, the tissue chosen, the concentration used for determining the non-specific fraction and the radioligand used to label the receptor are shown in Table A.
10^-6 M Calf hippocampus

[2] = tested on: hyperactivity induced by N-allylnormetazocine; test: Antagonism of the hyperactivity induced by N-allylnormetazocine; type: in vivo; settings: 32 mg.kg^-1, rats; N-allylnormetazocine 50 mg/kg subcutaneous
Experimental: This test was developed by Snyder S. H. et al. (J. Neuropsychiatry, 1989, 1,7-15).
Measurement of the hyperactivity induced by this product is therefore used as an alternative model for detecting the antipsychotic activity of the compounds which have an effect on σ receptors.
A group of 12 rats is treated with the compound to be tested before subcutaneous administration of 50 mg/kg of N-allylnormetazocine. 30 minutes later, the animals are placed in an activity cage for 30 minutes.
Haloperidol is used as reference compound.

σ2 receptor = target: T1, σ2 receptor (Cavia porcellus, UniProt H0V073); test: In vitro binding to σ2 receptors ([3H]-DTG); design: species or system guinea pig
T1 construct: Guinea pig brain; from tissue; host or cells: guinea pig brain
T1 sequence (H0V073 1-176): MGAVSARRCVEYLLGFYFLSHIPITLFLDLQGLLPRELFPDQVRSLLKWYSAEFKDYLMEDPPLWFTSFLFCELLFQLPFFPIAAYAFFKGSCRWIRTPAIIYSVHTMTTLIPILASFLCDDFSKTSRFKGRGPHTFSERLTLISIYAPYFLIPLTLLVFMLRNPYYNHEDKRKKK
Experimental: as §1, §2

σ1 receptor = target: T2, σ1 receptor (Cavia porcellus, UniProt Q60492); test: In vitro binding to σ1 receptors ([3H]-Pentazocine); design: species or system guinea pig
T2 construct: Guinea pig brain; from tissue; host or cells: guinea pig brain
Experimental: as §1, §2

T2 sequence (Q60492 whole entry): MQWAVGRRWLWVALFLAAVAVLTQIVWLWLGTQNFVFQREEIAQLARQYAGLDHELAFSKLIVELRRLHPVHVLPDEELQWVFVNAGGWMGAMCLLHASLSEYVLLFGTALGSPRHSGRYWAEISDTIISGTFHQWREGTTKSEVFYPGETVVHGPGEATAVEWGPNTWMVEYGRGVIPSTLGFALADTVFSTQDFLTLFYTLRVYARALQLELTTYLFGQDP

C=CCN1CCC2(C)c3cc(O)ccc3CC1C2C (single isomer, unassigned) [N-Allylnormetazocine]
agonism at σ receptors (σ receptors): prototype agonist for σ receptors | psychotic behavior in man (man): induces psychotic behavior in man

Fc1ccc2c(c1)CC(CN1CCN(Cc3ccccc3)CC1)O2 (stereo not shown) [Example 1, 1-[(5-FLUORO-2,3-DIHYDROBENZOFUR-2-YL) METHYL]-4-BENZYLPIPERAZINE]
percentage of antagonism of the hyperactivity induced by amphetamine [1]: 43% | pIC50 (σ receptor): 8.04

COc1ccc2c(CN3CCN(Cc4ccccc4)CC3)cc(=O)oc2c1 [Example 3, 1-[(7-METHOXY-2-OXOCHROM-3-EN-4-YL) METHYL]-4-BENZYLPIPERAZINE]
pIC50 (σ receptor): 8.89

c1ccc(CN2CCN(CC3Cc4ccccc4O3)CC2)cc1 (stereo not shown) [Example 4, 1-[(2,3-DIHYDROBENZOFUR-2-YL) METHYL]-4-BENZYLPIPERAZINE]
percentage of antagonism of the hyperactivity induced by amphetamine [1]: 61% | pIC50 (σ receptor): 8.15

CC(CN1CCN(Cc2ccccc2)CC1)Oc1ccccc1 (stereo not shown) [Example 9, 1-(2-PHENOXYPROPYL)-4-BENZYLPIPERAZINE]
antagonism of the hypermotility induced by N-allylnormetazocine [2]: 42% | pIC50 (σ2 receptor): 7.40 | pIC50 (σ1 receptor): 8.89
